Data as given in PMC11790914, “Chemogenomics for steroid hormone receptors (NR3)” (Communications Chemistry, 2025).
Several values for one entry are separate records, joined by “and”; a condition that tells them apart may be missing. Equal entries are not always repeated.

Legend:
HEK293T cells [1] = assay: Cytotoxicity: necrosis induction (red fluorescent dye for permeable plasma membranes); assay type: cell-based; details: 1 µM, 24 h, necrotic cell count normalized to 0.1% DMSO, single replicates;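 also: compounds applied in DMEM high glucose with 0.1% FCS and 0.1% DMSO, necrotic HEK293T cells counted by red staining of cells whose plasma membranes had become permeable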
Gal4-VP16 = assay type: cell-based; details: 1 µM; vs. DMSO ctrl; single replicates n=1-3
ABL1 = molecular target: T1, ABL1 (Homo sapiens, UniProt P00519); assay: Liability panel screening by DSF: ABL1; assay type: binding; details: DSF, 20 µM, n=2; read-out: Mean ΔTM ABL1
T1 construct: made in house
T1 sequence (P00519 whole entry, species assumed): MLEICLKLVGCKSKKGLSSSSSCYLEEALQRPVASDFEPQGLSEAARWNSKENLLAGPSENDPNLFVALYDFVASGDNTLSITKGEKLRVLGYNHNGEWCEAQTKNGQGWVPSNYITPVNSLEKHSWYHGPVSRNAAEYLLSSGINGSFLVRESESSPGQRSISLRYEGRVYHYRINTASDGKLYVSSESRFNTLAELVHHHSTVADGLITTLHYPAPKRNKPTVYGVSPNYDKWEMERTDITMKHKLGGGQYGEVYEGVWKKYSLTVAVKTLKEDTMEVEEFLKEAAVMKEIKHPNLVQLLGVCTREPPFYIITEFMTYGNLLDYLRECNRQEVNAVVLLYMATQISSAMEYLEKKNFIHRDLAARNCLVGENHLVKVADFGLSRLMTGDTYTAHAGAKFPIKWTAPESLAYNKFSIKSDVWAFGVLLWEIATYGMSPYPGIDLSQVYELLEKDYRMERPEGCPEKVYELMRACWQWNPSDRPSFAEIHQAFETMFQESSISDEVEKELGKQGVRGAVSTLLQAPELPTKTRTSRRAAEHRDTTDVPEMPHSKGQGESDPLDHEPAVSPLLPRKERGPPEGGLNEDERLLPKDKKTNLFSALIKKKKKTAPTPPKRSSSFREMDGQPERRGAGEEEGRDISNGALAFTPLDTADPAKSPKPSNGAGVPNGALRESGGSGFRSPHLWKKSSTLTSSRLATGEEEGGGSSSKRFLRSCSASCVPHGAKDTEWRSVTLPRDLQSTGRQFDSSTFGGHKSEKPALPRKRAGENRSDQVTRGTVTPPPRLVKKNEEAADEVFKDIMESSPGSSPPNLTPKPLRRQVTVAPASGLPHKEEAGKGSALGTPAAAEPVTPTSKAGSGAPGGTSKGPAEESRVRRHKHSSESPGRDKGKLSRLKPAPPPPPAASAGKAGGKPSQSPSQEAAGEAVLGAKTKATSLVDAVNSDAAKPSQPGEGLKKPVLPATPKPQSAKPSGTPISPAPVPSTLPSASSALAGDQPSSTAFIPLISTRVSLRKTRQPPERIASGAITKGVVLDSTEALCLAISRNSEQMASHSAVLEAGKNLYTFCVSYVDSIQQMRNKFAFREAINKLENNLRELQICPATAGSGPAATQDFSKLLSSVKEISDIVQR
Procedure, shortened: (§1)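 Recombinant protein at 2 µM in 10 mM HEPES pH 7.5 with 500 mM NaCl was mixed with SYPRO Orange (1:1000) and heated at 3 °C/min up to 85 °C. Tm was taken as the Boltzmann-fit inflection point. Shifts are ∆Tm in K from technical duplicates.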

AURKA = molecular target: T2, AURKA (Homo sapiens, UniProt O14965); assay: Liability panel screening by DSF: AURKA; assay type: binding; details: DSF, 20 µM, n=2; read-out: Mean ΔTM AURKA
T2 construct: made in house
T2 sequence (O14965 1-403): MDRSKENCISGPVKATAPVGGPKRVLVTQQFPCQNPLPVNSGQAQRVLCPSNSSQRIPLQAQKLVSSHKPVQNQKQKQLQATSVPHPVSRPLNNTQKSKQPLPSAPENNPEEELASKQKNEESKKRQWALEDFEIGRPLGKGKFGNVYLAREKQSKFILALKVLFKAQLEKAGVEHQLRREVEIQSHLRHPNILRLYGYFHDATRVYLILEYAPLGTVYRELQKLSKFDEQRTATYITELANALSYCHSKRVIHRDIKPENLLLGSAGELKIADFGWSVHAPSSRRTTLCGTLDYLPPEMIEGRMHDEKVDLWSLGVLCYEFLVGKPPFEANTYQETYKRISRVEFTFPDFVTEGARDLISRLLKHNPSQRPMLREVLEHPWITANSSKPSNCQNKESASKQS
Procedure, shortened: as §1

CDK2 = molecular target: T3, CDK2 (Homo sapiens, UniProt P24941); assay: Liability panel screening by DSF: CDK2; assay type: binding; details: DSF, 20 µM, n=2; read-out: Mean ΔTM CDK2
T3 construct: made in house
Procedure, shortened: as §1

FGFR3 = molecular target: T4, FGFR3 (Homo sapiens, UniProt P22607); assay: Liability panel screening by DSF: FGFR3; assay type: binding; details: DSF, 20 µM, n=2; read-out: Mean ΔTM FGFR3
T4 construct: made in house
T4 sequence (P22607 23-806, species assumed): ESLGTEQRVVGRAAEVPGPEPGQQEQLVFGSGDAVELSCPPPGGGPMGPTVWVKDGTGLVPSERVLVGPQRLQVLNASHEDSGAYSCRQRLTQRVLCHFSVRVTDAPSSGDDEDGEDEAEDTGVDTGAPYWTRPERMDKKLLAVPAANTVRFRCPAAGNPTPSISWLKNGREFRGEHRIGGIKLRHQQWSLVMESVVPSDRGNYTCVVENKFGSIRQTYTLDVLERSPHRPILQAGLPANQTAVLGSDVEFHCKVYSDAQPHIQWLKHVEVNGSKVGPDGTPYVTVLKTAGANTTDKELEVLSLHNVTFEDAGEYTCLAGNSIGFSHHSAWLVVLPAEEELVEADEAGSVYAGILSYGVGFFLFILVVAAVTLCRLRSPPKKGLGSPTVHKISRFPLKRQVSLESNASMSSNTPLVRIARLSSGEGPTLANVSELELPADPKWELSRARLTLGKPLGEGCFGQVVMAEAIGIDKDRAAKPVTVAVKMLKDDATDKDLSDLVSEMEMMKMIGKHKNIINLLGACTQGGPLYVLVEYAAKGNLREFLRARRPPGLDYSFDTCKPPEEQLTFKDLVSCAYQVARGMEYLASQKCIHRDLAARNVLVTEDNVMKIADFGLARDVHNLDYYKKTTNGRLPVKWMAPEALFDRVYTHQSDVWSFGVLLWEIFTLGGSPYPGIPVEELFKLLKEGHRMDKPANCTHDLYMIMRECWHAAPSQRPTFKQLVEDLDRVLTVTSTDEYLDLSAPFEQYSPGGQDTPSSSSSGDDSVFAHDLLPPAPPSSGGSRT
Procedure, shortened: as §1

GSK3B = molecular target: T5, GSK3B (Homo sapiens, UniProt P49841); assay: Liability panel screening by DSF: GSK3B; assay type: binding; details: DSF, 20 µM, n=2; read-out: Mean ΔTM GSK3B
T5 construct: made in house
T5 sequence (P49841 whole entry, species assumed): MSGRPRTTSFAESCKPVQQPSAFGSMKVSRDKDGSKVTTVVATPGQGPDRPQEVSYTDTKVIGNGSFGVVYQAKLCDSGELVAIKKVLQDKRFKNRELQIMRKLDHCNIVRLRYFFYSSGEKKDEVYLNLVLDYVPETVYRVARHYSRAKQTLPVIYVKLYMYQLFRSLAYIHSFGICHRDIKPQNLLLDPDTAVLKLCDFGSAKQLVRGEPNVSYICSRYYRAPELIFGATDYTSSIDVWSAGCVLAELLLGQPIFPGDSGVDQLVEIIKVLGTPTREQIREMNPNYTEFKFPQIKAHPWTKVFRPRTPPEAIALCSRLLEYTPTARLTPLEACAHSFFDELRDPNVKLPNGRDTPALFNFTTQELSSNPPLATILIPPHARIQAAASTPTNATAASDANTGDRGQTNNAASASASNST

BRD4 = molecular target: T6, BRD4 (Homo sapiens, UniProt O60885); assay: Liability panel screening by DSF: BRD4; assay type: binding; details: DSF, 20 µM, n=2; read-out: Mean ΔTM BRD4
T6 construct: This panel comprised ten highly ligandable kinases and bromodomains; made in house
Procedure, shortened: as §1

BRPF1 = molecular target: T7, BRPF1 (Homo sapiens, UniProt P55201); assay: Liability panel screening by DSF: BRPF1; assay type: binding; details: DSF, 20 µM, n=2; read-out: Mean ΔTM BRPF1
T7 construct: This panel comprised ten highly ligandable kinases and bromodomains; made in house
T7 sequence (P55201 628-732 limits assumed): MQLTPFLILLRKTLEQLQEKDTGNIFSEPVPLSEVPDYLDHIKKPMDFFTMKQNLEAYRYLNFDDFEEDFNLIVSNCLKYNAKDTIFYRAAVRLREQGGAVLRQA
Procedure, shortened: as §1

CSNK1D = molecular target: T8, CSNK1D (Homo sapiens, UniProt P48730); assay: Liability panel screening by DSF: CSNK1D; assay type: binding; details: DSF, 20 µM, n=2; read-out: Mean ΔTM CSNK1D
T8 construct: made in house
T8 sequence (P48730 whole entry, species assumed): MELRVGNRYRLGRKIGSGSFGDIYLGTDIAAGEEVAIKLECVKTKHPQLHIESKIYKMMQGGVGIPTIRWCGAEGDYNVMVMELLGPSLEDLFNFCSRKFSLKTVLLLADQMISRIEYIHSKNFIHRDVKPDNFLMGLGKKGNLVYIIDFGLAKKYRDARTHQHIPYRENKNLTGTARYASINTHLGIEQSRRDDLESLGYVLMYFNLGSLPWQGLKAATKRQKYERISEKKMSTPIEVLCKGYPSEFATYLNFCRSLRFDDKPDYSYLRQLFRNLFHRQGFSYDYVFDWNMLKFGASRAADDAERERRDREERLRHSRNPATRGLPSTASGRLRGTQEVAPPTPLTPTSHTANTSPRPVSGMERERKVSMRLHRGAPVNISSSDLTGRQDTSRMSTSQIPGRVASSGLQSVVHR
Procedure, shortened: as §1

MAPK1 = molecular target: T9, MAPK1 (Homo sapiens, UniProt P28482); assay: Liability panel screening by DSF: MAPK1; assay type: binding; details: DSF, 20 µM, n=2; read-out: Mean ΔTM MAPK1
T9 construct: made in house
T9 sequence (P28482 whole entry, species assumed): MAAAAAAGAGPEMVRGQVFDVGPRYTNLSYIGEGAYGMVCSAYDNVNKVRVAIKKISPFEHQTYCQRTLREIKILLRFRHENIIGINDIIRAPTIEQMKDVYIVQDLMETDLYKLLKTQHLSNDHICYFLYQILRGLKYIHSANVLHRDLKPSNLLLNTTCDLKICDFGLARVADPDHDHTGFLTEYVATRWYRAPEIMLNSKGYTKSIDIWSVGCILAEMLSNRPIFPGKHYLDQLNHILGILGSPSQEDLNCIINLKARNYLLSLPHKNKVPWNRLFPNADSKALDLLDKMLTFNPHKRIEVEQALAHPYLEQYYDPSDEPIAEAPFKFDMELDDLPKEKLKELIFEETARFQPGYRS
Procedure, shortened: as §1

TRIM24 = molecular target: T10, TRIM24 (Homo sapiens, UniProt O15164); assay: Liability panel screening by DSF: TRIM24; assay type: binding; details: DSF, 20 µM, n=2; read-out: Mean ΔTM TRIM24
T10 construct: This panel comprised ten highly ligandable kinases and bromodomains; made in house
T10 sequence (O15164 899-1004 limits assumed): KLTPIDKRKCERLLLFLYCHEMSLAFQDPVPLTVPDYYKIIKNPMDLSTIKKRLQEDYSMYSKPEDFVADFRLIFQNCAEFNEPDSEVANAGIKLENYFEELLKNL
Procedure, shortened: as §1

[2] = tested on: NF-κB activity in HEK293 NF-κB reporter cells; assay: NF-kB activity assay (GFP reporter, ionomycin/PMA); assay type: cell-based; details: for Mean NFκB response: n=3
Procedure, shortened: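 Reporter readout: GFP-expressing cells normalized to confluence, imaged every 90 min across 24 h after ionomycin (100 ng/mL)/PMA (10 ng/mL) stimulation of HEK293 cells pre-treated 4 h with compound (0.1% DMSO); triplicate independent experiments.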

[3] = tested on: ATF6 activity in Hela ATF6 reporter cells; assay: Endoplasmic reticulum stress assay (ATF6 Renilla luciferase reporter, tunicamycin); assay type: cell-based
Procedure, shortened: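 ER stress was induced by 100 ng/mL tunicamycin added 4 h after compound (0.1% DMSO) to HeLa ATF6 reporter cells. After 18 h more, Renilla luciferase signal was read and expressed relative to DMSO control, n=5 biological replicates.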

NR3C1 (GR) = details: (lit.); ref Supplementary Table 1; read-out: Potency [nM] EC50, NR3C1 (GR); cited from earlier work
HEK293T cells [4] = assay: Cytotoxicity: metabolic activity (WST-8 / CCK-8 assay); details: 1 µM, single replicates
HEK293T cells [5] = assay: Cytotoxicity: growth-rate (change in confluence over 24 h); details: 1 µM, normalized to 0.1% DMSO control, single replicates (n=1...)
HEK293T cells [6] = assay: Cytotoxicity: apoptosis induction (caspase-3/7 DEVD fluorogenic DNA dye); details: 1 µM, single replicates
[7] = other targets with annotated bioactivities at ≤10 µM in previously published dataset; cited from earlier work

**Q.** For `COc1cccc([C@@H](Oc2ccc3c(cnn3-c3ccc(F)cc3)c2)[C@H](C)NC(=O)C(F)(F)F)c1` [AZD5423], which “Necrosis induction [NI]” value (HEK293T cells [1]) is on record?
**A.** 0.69 and 0.73 and 0.65 and 0.80

**Q.** And the “VP16 control [fold reporter gene activity]” value (Gal4-VP16)?
**A.** 0.65 fold reporter gene activity and 0.98 fold reporter gene activity and 1.07 fold reporter gene activity

**Q.** What about the ΔTm at 20 µM (ABL1) of the same compound?
**A.** -0.84 °C

**Q.** And the ΔTm at 20 µM (AURKA)?
**A.** -3.28 °C

**Q.** What about the ΔTm at 20 µM (CDK2) of the same compound?
**A.** -0.35 °C

**Q.** What about the ΔTm at 20 µM (FGFR3) of the same compound?
**A.** -1.62 °C

**Q.** What about the ΔTm at 20 µM (GSK3B) of the same compound?
**A.** 0.67 °C

**Q.** What about the ΔTm at 20 µM (BRD4) of the same compound?
**A.** -1.37 °C

**Q.** What about the ΔTm at 20 µM (BRPF1) of the same compound?
**A.** -0.79 °C

**Q.** And the ΔTm at 20 µM (CSNK1D)?
**A.** -5.6 °C

**Q.** And the ΔTm at 20 µM (MAPK1)?
**A.** -5.37 °C

**Q.** What about the ΔTm at 20 µM (TRIM24) of the same compound?
**A.** -2.31 °C

**Q.** And the “Mean NFκB response” value ([2]; 1 µM, 1,5 h)?
**A.** 2076.25 GFP+-cells/confluence ∙ 1000

**Q.** What about the “Mean NFκB response” value ([2]; 1 µM, 4,5 h) of the same compound?
**A.** 2908.84 GFP+-cells/confluence ∙ 1000

**Q.** What about the “Mean NFκB response” value ([2]; 1 µM, 7,5 h) of the same compound?
**A.** 5573.87 GFP+-cells/confluence ∙ 1000

**Q.** And the “Mean NFκB response” value ([2]; 1 µM, 10,5 h)?
**A.** 12373.33 GFP+-cells/confluence ∙ 1000

**Q.** What about the “Mean NFκB response” value ([2]; 1 µM, 13,5 h) of the same compound?
**A.** 17196.67 GFP+-cells/confluence ∙ 1000

**Q.** What about the “Mean NFκB response” value ([2]; 1 µM, 16,6 h) of the same compound?
**A.** 21116.67 GFP+-cells/confluence ∙ 1000

**Q.** What about the “Mean NFκB response” value ([2]; 1 µM, 19,5 h) of the same compound?
**A.** 24016.67 GFP+-cells/confluence ∙ 1000

**Q.** And the “Mean NFκB response” value ([2]; 1 µM, 22,5 h)?
**A.** 27100.00 GFP+-cells/confluence ∙ 1000

**Q.** And the “Mean NFκB response” value ([2]; 1 µM, 3 h)?
**A.** 2386.46 GFP+-cells/confluence ∙ 1000

**Q.** What about the “Mean NFκB response” value ([2]; 1 µM, 6 h) of the same compound?
**A.** 3758.89 GFP+-cells/confluence ∙ 1000

**Q.** And the “Mean NFκB response” value ([2]; 1 µM, 9 h)?
**A.** 9073.33 GFP+-cells/confluence ∙ 1000

**Q.** And the “Mean NFκB response” value ([2]; 1 µM, 12 h)?
**A.** 14943.33 GFP+-cells/confluence ∙ 1000

**Q.** What about the “Mean NFκB response” value ([2]; 1 µM, 15 h) of the same compound?
**A.** 19223.33 GFP+-cells/confluence ∙ 1000

**Q.** And the “Mean NFκB response” value ([2]; 1 µM, 18 h)?
**A.** 22723.33 GFP+-cells/confluence ∙ 1000

**Q.** And the “Mean NFκB response” value ([2]; 1 µM, 21 h)?
**A.** 25420.00 GFP+-cells/confluence ∙ 1000

**Q.** What about the “Mean NFκB response” value ([2]; 1 µM, 24 h) of the same compound?
**A.** 27183.33 GFP+-cells/confluence ∙ 1000

**Q.** And the “NF-κB activity (inflammatory response to ionomycin/PMA)” value ([2]; HEK293 NF-κB reporter cells, compounds at recommended concentrations, imaged over 24 h, n = 3)?
**A.** consistently delayed and strongly diminished NF-κB activity

**Q.** What about the “ATF6 activity (tunicamycin-induced endoplasmic reticulum stress)” value ([3]; Hela ATF6 reporter cells, tunicamycin 100 ng/mL, 18 h, compounds at recommended concentrations, n = 5) of the same compound?
**A.** Consistently weaker ATF6 activity

**Q.** And the activity at 1 µM ([3]; Homo sapiens, HeLa, 1 µM, single replicates n=1 to n=5, read-out: ER stress [rel. ATF6 activity])?
**A.** 84%

**Q.** What about the EC50 (NR3C1 (GR)) of the same compound?
**A.** 0.9 ± 0.2 nM

**Q.** What about the “Metabolic activity [MA]” value (HEK293T cells [4]; HEK293T, 24 h, WST-8, normalized to 0.1% DMSO) of the same compound?
**A.** 1.02 and 1.00 and 0.98 and 1.07 and 1.09 and 0.99 and 1.14 and 1.15

**Q.** What about the “Growth rate [GR]” value (HEK293T cells [5]) of the same compound?
**A.** 0.81 and 2.24 and 0.71 and 1.01 and 0.62 and 1.06 and 0.88 and 0.60 and 1.03 and 2.44

**Q.** What about the “Apoptosis induction [AI]” value (HEK293T cells [6]; HEK293T, 24 h, apoptotic cell count normalized to 0.1% DMSO) of the same compound?
**A.** 0.73 and 0.76 and 0.75 and 0.81 and 1.24 and 2.34

**Q.** Which ΔTm at 20 µM (ABL1) does the source give for `CCC(=O)O[C@]1(C(=O)SCF)[C@H](C)C[C@H]2[C@@H]3C[C@H](F)C4=CC(=O)C=C[C@]4(C)[C@@]3(F)[C@@H](O)C[C@@]21C` [Fluticasone propionate] here?
**A.** 0.19 °C

**Q.** And the ΔTm at 20 µM (AURKA)?
**A.** 0.09 °C

**Q.** What about the ΔTm at 20 µM (CDK2) of the same compound?
**A.** 0.15 °C

**Q.** What about the ΔTm at 20 µM (FGFR3) of the same compound?
**A.** 0.32 °C

**Q.** And the ΔTm at 20 µM (GSK3B)?
**A.** -0.55 °C

**Q.** What about the ΔTm at 20 µM (BRD4) of the same compound?
**A.** -0.24 °C

**Q.** What about the ΔTm at 20 µM (BRPF1) of the same compound?
**A.** -0.69 °C

**Q.** What about the ΔTm at 20 µM (CSNK1D) of the same compound?
**A.** -0.0152 °C

**Q.** What about the ΔTm at 20 µM (MAPK1) of the same compound?
**A.** -0.034 °C

**Q.** And the ΔTm at 20 µM (TRIM24)?
**A.** -0.08 °C

**Q.** And the EC50 (NR3C1 (GR))?
**A.** 1 nM

**Q.** What about the “Reason for exclusion: number of annotated off-targets” value [7] of the same compound?
**A.** > 5 off-targets

**Q.** What about the “Metabolic activity [MA]” value (HEK293T cells [4]; DMSO 0.1% = 1.00) of the same compound?
**A.** 0.94 and 0.83 and 1.03 and 1.06 and 1.10 and 1.04

**Q.** What about the “Growth rate [GR]” value (HEK293T cells [5]) of the same compound?
**A.** 0.78 and 1.00 and 1.07 and 0.88 (2×) and 0.82

**Q.** What about the “Apoptosis induction [AI]” value (HEK293T cells [6]; DMSO 0.1% = 1.00) of the same compound?
**A.** 0.81 and 1.24
